Key:
[1] = cited from earlier work
[2] = aqueous solubility of gallium as a function of pH; assay type: physicochemical
Source text: Gallium is a semi-metallic element in group 13 (IIIa) of the periodic table. Gallium is trivalent in aqueous solution (Ga^3+). The free hydrated ion Ga^3+hydrolyzes nearly completely at pH values close to neutral, readily forming highly insoluble amorphous Ga(OH)3. In addition to precipitating as hydroxides and oxyhydroxides , Ga will also form highly insoluble phosphates at pH values close to neutral. L R Bernstein (1998) provides a brief review of the solution chemistry of gallium. […] At low and high pH values, gallium has many orders of magnitude greater solubility. […] This difference in solubility can be exploited in an inhalation product by formulating gallium or its salts (e.g., gallium nitrate) at a very low or very high pH.

[3] = calculated gallium concentration and precipitation in lung fluid after one AERx strip; parameters: species or system human
Source text: Thus, one would expect that there would be a depot-like effect in the lung in terms of the release of gallium from the solid state over time. This would result in a delayed absorption profile of gallium into the bloodstream, with a reduced CMAX and delayed TMAX. This would also reduce or eliminate side effects resulting from high systemic concentrations.

[4] = pH 7.4 and 25° C.; cited from earlier work
[5] = in lung fluid at ~pH 7.4, assumed deposition

| times greater solubility than at pH 7.4 ([2]; pH 2 versus pH 7.4) | times greater solubility than at pH 7.4 ([2]; pH 10 versus pH 7.4) [times] | resulting gallium concentration in lung fluid ([3]; assumed: 25 μL of pH 2 solution equilibrated to ~pH 7.4 in 20 mL lung fluid) [µM] | excess of concentration over equilibrium solubility at pH 7.4 ([3]; assumed: 25 μL of pH 2 solution in 20 mL lung fluid) [fold] | gallium likely to precipitate out of solution [3, 5] [%] | gallium remaining soluble [3, 5] [%] | Compound | solubility in water [1] | total aqueous solubility of gallium [4] [µM] |
| --- | --- | --- | --- | --- | --- | --- | --- | --- |
| – | – | – | – | – | – | NC[C@H]1O[C@H](O[C@H]2[C@H](O)[C@@H](O[C@H]3O[C@H](CO)[C@@H](O)[C@H](N)[C@H]3O)[C@H](N)C[C@@H]2N)[C@H](N)C[C@@H]1O [tobramycin] | very soluble in water | – |
| ~10,000 times | ~500 | ~12.5 | ~12.5 | 96 | 8 | [Ga] [gallium] | – | ~1 |

— patent US20200297722A1, “pH-Modulated Formulations for Pulmonary Delivery” (GRIFOLS, S.A., priority 2009, published 2020)
